Measured values as given in ChEMBL document CHEMBL1201862, “PubChem BioAssay data set” (2004).
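Step 1: Grow cells in 96-well plates. Step 2: Expose to compound for 48 hours at 5 concentrations. Step 3: Interpolate endpoints linearly; if unreached, use highest concentration. GI50: concentration for 50% inhibition of growth.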 Activity calls are given as the source filed them. Rule as the data show it: active = GI50 up to about 1.1 µM and inactive = higher.

How the values were obtained:
Experiment in all cases: inhibition of tumour cell growth, NCI panel, 48 h
OVCAR-5 = test system: OVCAR-5
HOP-62 = test system: HOP-62
SF-268 = test system: SF-268
IGROV-1 = test system: IGROV-1
M14 = test system: M14
HL-60 = test system: HL-60
UACC-257 = test system: UACC-257
LOX IMVI = test system: LOX IMVI
CAKI-1 = test system: CAKI-1
OVCAR-3 = test system: OVCAR-3
HCC 2998 = test system: HCC 2998
TK-10 = test system: TK-10
UACC-62 = test system: UACC-62
SK-MEL-2 = test system: SK-MEL-2
COLO 205 = test system: COLO 205
CCRF-CEM = test system: CCRF-CEM

Measured: GI50

O=C(CCC(=O)Nc1ccc(Cl)cc1)CC(=O)c1ccc(F)cc1
inactive: OVCAR-5 > 100 µM | HOP-62 > 100 µM | SF-268 > 100 µM | IGROV-1 > 100 µM | M14 > 100 µM | HL-60 > 100 µM | UACC-257 > 100 µM | LOX IMVI > 100 µM | CAKI-1 > 100 µM | OVCAR-3 > 100 µM | HCC 2998 > 100 µM | TK-10 > 100 µM | UACC-62 > 100 µM | SK-MEL-2 > 100 µM | COLO 205 > 100 µM

N#Cc1c(-c2ccccc2)cc(-c2ccc(N)cc2)[nH]c1=O
inactive: OVCAR-5 > 100 µM | HOP-62 > 100 µM | SF-268 > 100 µM | IGROV-1 > 100 µM | M14 > 100 µM | HL-60 > 100 µM | UACC-257 > 100 µM | LOX IMVI > 100 µM | OVCAR-3 > 100 µM | HCC 2998 > 100 µM | TK-10 > 100 µM | UACC-62 > 100 µM | CCRF-CEM > 100 µM | COLO 205 > 100 µM

CCN1CCN(c2ccc(Nc3ccnc4ccc5nn(C)nc5c34)cc2)CC1
inactive: OVCAR-5 15.9 µM | HOP-62 13.1 µM | SF-268 14.9 µM | IGROV-1 18.6 µM | M14 16.1 µM | HL-60 94.8 µM | UACC-257 16.6 µM | LOX IMVI 7.18 µM | CAKI-1 12.8 µM | OVCAR-3 13.5 µM | HCC 2998 13.2 µM | TK-10 17.5 µM | UACC-62 16.9 µM | CCRF-CEM > 100 µM | COLO 205 5.08 µM

O=C1CC[C@H]2CNC(=O)C[C@H]2C1
inactive: HOP-62 > 100 µM | SF-268 > 100 µM | IGROV-1 > 100 µM | M14 > 100 µM | HL-60 > 100 µM | UACC-257 > 100 µM | LOX IMVI > 100 µM | CAKI-1 > 100 µM | OVCAR-3 > 100 µM | HCC 2998 > 100 µM | TK-10 > 100 µM | UACC-62 > 100 µM | SK-MEL-2 > 100 µM | CCRF-CEM > 100 µM | COLO 205 > 100 µM

Cc1cccc2c(=O)cc(-c3ccccc3)[nH]c12
inactive: HOP-62 3.64 µM | SF-268 8.15 µM | IGROV-1 7.26 µM | M14 3.45 µM | HL-60 3.25 µM | UACC-257 5.22 µM | LOX IMVI 4.58 µM | OVCAR-3 3.31 µM | HCC 2998 4.39 µM | TK-10 > 100 µM | UACC-62 4.21 µM | SK-MEL-2 4.6 µM | CCRF-CEM 3.62 µM | COLO 205 4.36 µM

COC(=O)/C(=N\Nc1nnc(C)n1N)C(C#N)c1ccc(Cl)cc1 (stereo unspecified)
inactive: OVCAR-5 > 100 µM | HOP-62 > 100 µM | SF-268 > 100 µM | IGROV-1 > 100 µM | M14 > 100 µM | UACC-257 > 100 µM | LOX IMVI > 100 µM | CAKI-1 > 100 µM | OVCAR-3 > 100 µM | HCC 2998 > 100 µM | TK-10 > 100 µM | UACC-62 > 100 µM | SK-MEL-2 > 100 µM | COLO 205 95.1 µM

C/C(=N\NC(=S)NC(CCC(=O)O)C(=O)O)c1cnccn1 (stereo unspecified)
inactive: OVCAR-5 > 100 µM | HOP-62 > 100 µM | SF-268 > 100 µM | IGROV-1 > 100 µM | M14 > 100 µM | HL-60 > 100 µM | UACC-257 > 100 µM | LOX IMVI > 100 µM | OVCAR-3 > 100 µM | HCC 2998 > 100 µM | TK-10 > 100 µM | UACC-62 > 100 µM | SK-MEL-2 > 100 µM | CCRF-CEM > 100 µM | COLO 205 > 100 µM

O=C1c2ccccc2OP(=O)(OCC(F)(F)F)OC1(C(F)(F)F)C(F)(F)F (stereo unspecified)
inactive: OVCAR-5 > 100 µM | HOP-62 > 100 µM | SF-268 > 100 µM | IGROV-1 > 100 µM | M14 > 100 µM | HL-60 > 100 µM | UACC-257 > 100 µM | LOX IMVI > 100 µM | CAKI-1 > 100 µM | HCC 2998 > 100 µM | TK-10 > 100 µM | UACC-62 > 100 µM | SK-MEL-2 > 100 µM | CCRF-CEM > 100 µM | COLO 205 > 100 µM

COc1ccc(C(C#N)Cc2cc(OC)c(OC)c(OC)c2)cc1 (stereo unspecified)
inactive: OVCAR-5 64.7 µM | HOP-62 22.3 µM | SF-268 49.2 µM | IGROV-1 31.9 µM | M14 33.4 µM | HL-60 15 µM | UACC-257 50.5 µM | LOX IMVI 28.6 µM | CAKI-1 29.3 µM | OVCAR-3 31.4 µM | TK-10 37.6 µM | UACC-62 27.8 µM | CCRF-CEM 28.8 µM | COLO 205 19.2 µM

N#CC(C(=O)/C(=N\Nc1nc(S)nn1N)C(C#N)c1ccc(Cl)cc1)c1ccc(Cl)cc1 (stereo unspecified)
inactive: OVCAR-5 > 100 µM | HOP-62 > 100 µM | SF-268 > 100 µM | IGROV-1 > 100 µM | M14 > 100 µM | UACC-257 > 100 µM | LOX IMVI > 100 µM | CAKI-1 > 100 µM | OVCAR-3 > 100 µM | HCC 2998 > 100 µM | TK-10 > 100 µM | UACC-62 > 100 µM | SK-MEL-2 > 100 µM | COLO 205 > 100 µM

Cc1ccc(S(=O)(=O)N/N=C(\CCN2CCCC2)CC(c2ccccc2)c2c(O)c3ccccc3oc2=O)cc1 (stereo unspecified)
inactive: OVCAR-5 > 100 µM | HOP-62 > 100 µM | SF-268 > 100 µM | IGROV-1 > 100 µM | M14 > 100 µM | HL-60 > 100 µM | UACC-257 > 100 µM | LOX IMVI > 100 µM | CAKI-1 > 100 µM | OVCAR-3 > 100 µM | TK-10 > 100 µM | UACC-62 > 100 µM | SK-MEL-2 > 100 µM | CCRF-CEM 95.5 µM

CC(C)(C)C1=Cc2cc3cc(C(C)(C)C)[nH]c(=O)c3cc2S(=O)(=O)N1
inactive: OVCAR-5 33.7 µM | HOP-62 22.3 µM | SF-268 26.1 µM | M14 14.6 µM | HL-60 21.2 µM | UACC-257 25.1 µM | CAKI-1 12.2 µM | OVCAR-3 19 µM | TK-10 29.6 µM | UACC-62 18.4 µM | SK-MEL-2 18.7 µM | CCRF-CEM 26.6 µM | COLO 205 21.5 µM

CCOC(=O)/C(C(=O)c1ccccc1)=C1\N[C@H](C(=O)OCC)CS1
inactive: OVCAR-5 > 100 µM | HOP-62 > 100 µM | SF-268 > 100 µM | IGROV-1 > 100 µM | M14 > 100 µM | HL-60 > 100 µM | UACC-257 > 100 µM | LOX IMVI > 100 µM | CAKI-1 > 100 µM | OVCAR-3 > 100 µM | HCC 2998 > 100 µM | UACC-62 > 100 µM | SK-MEL-2 > 100 µM | CCRF-CEM > 100 µM | COLO 205 > 100 µM

O=C(O)CCc1nn2c(nc1=O)sc1ccc3ccccc3c12
inactive: HOP-62 > 100 µM | SF-268 > 100 µM | IGROV-1 > 100 µM | M14 > 100 µM | HL-60 > 100 µM | UACC-257 > 100 µM | LOX IMVI > 100 µM | CAKI-1 > 100 µM | OVCAR-3 > 100 µM | HCC 2998 > 100 µM | TK-10 > 100 µM | UACC-62 > 100 µM | CCRF-CEM > 100 µM | COLO 205 > 100 µM
